Laboratory results as given in PMC6045618, “Novel natural killer cell-mediated cancer immunotherapeutic activity of anisomycin against hepatocellular carcinoma cells” (Scientific Reports, 2018).

Columns and labels:
HepG2 cells [1] = assay: EZ-Cytox Enhanced cell viability assay, HepG2; assay type: cell-based; settings: 48 h exposure, read-out: IC50, cell cytotoxicity / proliferation inhibition
Method: (§1) HepG2 cells were purchased from the American Type Culture Collection (ATCC, Manassas, VA, USA), and Huh7 cells and SNU449 cells were purchased from the Korean Cell Line Bank (Seoul, Korea). Cells were cultured according to the suppliers’ instructions. HepG2 cells were cultured in Eagle’s minimum essential medium (ATCC) containing 10% FBS (Life Technologies), 2 mM L-glutamine, and penicillin-streptomycin (Life Technologies) at 37 °C in 5% CO2. Huh7 and SNU449 cells were cultured in RPMI1640 (Life Technologies) containing 10% FBS (Life Technologies), 2 mM L-glutamine, and penicillin-streptomycin (Life Technologies) at 37 °C in 5% CO2. Anisomycin was purchased from Sigma-Aldrich (St. Louis, MO, USA) and dissolved at a concentration of 20 mg/mL in 100% DMSO as a stock solution. The stock solution was stored at −20 °C and diluted in medium before each experiment. […]
(§2) Cell proliferation was assessed using an EZ-Cytox Enhanced cell viability assay kit from ITSBIO (Seoul, Republic of Korea). […] At the end of the incubation, the absorbance in each well was measured at 450 nm using a microplate reader. The relative cell viability (%) was calculated using the equation OD^T/OD^C × 100% (where OD^T represents the absorbance of the treatment group, and OD^c represents the absorbance of the control group). […]

Huh7 cells [2] = assay: EZ-Cytox Enhanced cell viability assay, Huh7; assay type: cell-based; settings: 48 h exposure, read-out: IC50, cell cytotoxicity / proliferation inhibition
Method: as §1, §2

SNU449 cells [3] = assay: EZ-Cytox Enhanced cell viability assay, SNU449; assay type: cell-based; settings: 48 h exposure, read-out: IC50, cell cytotoxicity / proliferation inhibition
Method: as §1, §2

HepG2 cells [4] = assay: Annexin V / 7-ADD apoptosis flow cytometry, HepG2; assay type: cell-based; settings: 48 h
Method: (§3) To analyse apoptotic cells, we stained cells with anti-human CD56-allophycocyanin monoclonal antibodies, 7ADD, and Annexin V (BioLegend, San Diego, CA, USA) following the protocol provided by the manufacturer. Briefly, we stained cells with anti-human CD56-allophycocyanin monoclonal antibodies on ice for 10 min, washed cells with an appropriate volume of chilled Annexin V binding buffer (BioLegend), and resuspended cells in chilled Annexin V binding buffer (BioLegend) in the presence of Annexin V and 7ADD. The cells were incubated on ice for 30 min, washed with chilled Annexin V binding buffer, and analysed. Staining data were collected using a FACSCanto II Cytometer (BD Biosciences).

Huh7 cells [5] = assay: Annexin V / 7-ADD apoptosis flow cytometry, Huh7; assay type: cell-based; settings: 48 h
Method: as §3

SNU449 cells [6] = assay: Annexin V / 7-ADD apoptosis flow cytometry, SNU449; assay type: cell-based; settings: 48 h
Method: as §3

HepG2 cells [7] = assay: Apoptosis of anisomycin-pre-treated HepG2 cells cocultured with NK cells (flow cytometry); assay type: cell-based, human; settings: HepG2 pre-treated 0.2 μM 48 h, then NK cells 4 h, CD56-negative gate
From the text: Peripheral blood from healthy donors was obtained from the Red Cross Blood Center. We followed the guidelines of the Red Cross, and all methods and protocols involving the use of human peripheral blood were approved by the Institutional Review Board of the Red Cross. Based on the Red Cross guidelines, informed consent for study participation was obtained, and donor information was not provided. NK cells were isolated from whole blood to more than 95% purity by negative selection using a RosetteSep Human NK Cell Enrichment Cocktail (StemCell Technologies, Vancouver, Canada) according to the manufacturer’s protocol. The isolated NK cells were washed in HBSS plus 4% foetal bovine serum (FBS; Life Technologies, Carlsbad, CA, USA) and resuspended in MEM-α (Life Technologies) containing 20% FBS (Life Technologies) and penicillin-streptomycin (Life Technologies) at 37 °C in 5% CO2.
To analyse apoptotic cells, we stained cells with anti-human CD56-allophycocyanin monoclonal antibodies, 7ADD, and Annexin V (BioLegend, San Diego, CA, USA) following the protocol provided by the manufacturer. […] The cells were incubated on ice for 30 min, washed with chilled Annexin V binding buffer, and analysed. […]

HepG2 carcinoma = assay: HepG2 tumour xenograft in NOD-SCID mice with or without human primary NK cells; assay type: in vivo, mouse; settings: 10 mg/kg i.p.
From the text: NOD.CB17-Prkdc^scid/NCrCrl mice were purchased from Charles River Laboratories, Inc. (Wilmington, MA, USA). We used 6-8-week-old female mice in all experiments; these mice were housed in a pathogen-free animal facility. All animal experiments were approved by the Institutional Animal Use and Care Committee of the Korea Research Institute of Bioscience and Biotechnology and performed in accordance with the Guide for the Care and Use of Laboratory Animals published by the US National Institutes of Health.
Six-week-old female NOD.CB17-Prkdc^scid/NCrCrl mice were purchased from Charles River Laboratories, Inc. Xenograft models were established by subcutaneous injection of 1 × 10^6 HepG2 cells into the right flanks of the mice. Five days after inoculation, the mice were randomly separated into groups of four. Anisomycin (10 mg/kg) was administered from day 0 to 5 and from day 15 to 20 after initiation of anisomycin treatment via the intraperitoneal (i.p) route. NK cells (5 × 10^6 cells/mouse) were transferred into mice two times on days 6 and 11 during the treatment pause period. Tumours were measured every 3 days using callipers, and their volumes were calculated according to the following formula: volume (mm^3) = (d^2 × D)/2, where d and D represent the shortest and longest tumour diameters, respectively.

[8] = test system: HepG2, Huh7, and SNU449 cells; assay: Light microscopy of cell density; assay type: cell-based; settings: 0.2 μM, 2 days
Method: HepG2 cells were purchased from the American Type Culture Collection (ATCC, Manassas, VA, USA), and Huh7 cells and SNU449 cells were purchased from the Korean Cell Line Bank (Seoul, Korea). Cells were cultured according to the suppliers’ instructions. HepG2 cells were cultured in Eagle’s minimum essential medium (ATCC) containing 10% FBS (Life Technologies), 2 mM L-glutamine, and penicillin-streptomycin (Life Technologies) at 37 °C in 5% CO2. Huh7 and SNU449 cells were cultured in RPMI1640 (Life Technologies) containing 10% FBS (Life Technologies), 2 mM L-glutamine, and penicillin-streptomycin (Life Technologies) at 37 °C in 5% CO2. Anisomycin was purchased from Sigma-Aldrich (St. Louis, MO, USA) and dissolved at a concentration of 20 mg/mL in 100% DMSO as a stock solution. The stock solution was stored at −20 °C and diluted in medium before each experiment. […] Antibodies against caspase3, PARP, and β-actin were purchased from Cell Signaling Technology (Danvers, MA, USA).

[9] = test system: cleaved caspase-3, cleaved PARP; assay: Immunoblot of cleaved caspase-3 and cleaved PARP in sorted HepG2 cells; assay type: cell-based; settings: HepG2, 0.2 μM 48 h
Method: HepG2 cells were cultured in the presence or absence of 0.2 µM anisomycin for 2 days and harvested for cell counts. Then, 1 × 10^7 HepG2 cells were cocultured with 1 × 10^7 NK cells for 2 h and harvested by centrifugation at 1,000 rpm for 5 min. Cells were stained with anti-human CD56 monoclonal antibodies (BioLegend), washed, and resuspended in PBS containing HBSS supplemented with 4% FBS (Gibco). CD56-negative HepG2 cells were isolated to nearly 100% purity using an Aria cytometer (BD Biosciences).
Cells were suspended in modified RIPA lysis buffer (150 mM NaCl, 1 mM EDTA, 1% Triton X-100, 1% NP-40, 0.5% sodium deoxycholate, 0.1% sodium dodecyl sulphate [SDS], and 50 mM Tris-HCl [pH 7.4]) containing a protease inhibitor cocktail (Roche, Mannheim, Germany) and phosphatase inhibitors (1 mM sodium fluoride and 2 mM sodium orthovanadate) on ice for 30 min and centrifuged at 15,000 × g for 30 min to collect whole-cell lysates. Proteins (10–20 µg) were then separated by SDS-polyacrylamide gel electrophoresis on 8‒12% gels and transferred to polyvinylidene difluoride membranes (Millipore, Bedford, MA, USA). Western blotting was performed with primary antibodies against caspase3, PARP, and β-actin (Cell Signaling Technology) and peroxidase-conjugated anti-mouse or anti-rabbit secondary antibodies. Proteins were visualized with Enhanced Chemiluminescence Plus reagents (Amersham Biosciences, Piscataway, NJ, USA).

CD58 = assay: Western blot of CD58 in HCC cells; assay type: cell-based; settings: 0.2 μM, HepG2, Huh7, SNU449 cells
[10] = test system: MHC-I molecules (HLA-A, -B, and -C); assay: Flow cytometry of MHC-I (HLA-A, -B, -C) on HCC cells; assay type: cell-based; settings: 0.2 μM 48 h, HepG2, SNU449, Huh7 cells

## COc1ccc(C[C@H]2NC[C@H](O)[C@H]2OC(C)=O)cc1 [anisomycin]
HepG2 cells [1]
  IC50: 82.2 nM
Huh7 cells [2]
  IC50: 118 nM
SNU449 cells [3]
  IC50: 138 nM
HepG2 cells [4]; HepG2, 0.1 μM
  Annexin V and 7-ADD double-positive cells (apoptotic cells): 1.23%
HepG2 cells [4]; HepG2, 0.2 μM
  Annexin V and 7-ADD double-positive cells (apoptotic cells): 2.81%
Huh7 cells [5]; Huh7, 0.1 μM
  Annexin V and 7-ADD double-positive cells (apoptotic cells): 4.59%
Huh7 cells [5]; Huh7, 0.2 μM
  Annexin V and 7-ADD double-positive cells (apoptotic cells): 6.85%
SNU449 cells [6]; SNU449, 0.1 μM
  Annexin V and 7-ADD double-positive cells (apoptotic cells): 2.24%
SNU449 cells [6]; SNU449, 0.2 μM
  Annexin V and 7-ADD double-positive cells (apoptotic cells): 4.94%
HepG2 cells [7]
  Annexin V and 7ADD double-positive cells (apoptotic cells) after coculture with NK cells: 14.00%
HepG2 carcinoma; days 0 to 5 and 15 to 20, NK cells 5 × 10^6 cells/mouse on days 6 and 11
  Tumour suppression in the presence of human primary NK cells: synergistically enhanced
HepG2 carcinoma; days 0 to 5 and 15 to 20, NOD-SCID mice
  Body weight loss and abnormal behaviours of treated mice: did not show significant body weight loss or any abnormal behaviours
HepG2 carcinoma; days 0 to 5 and 15 to 20, NOD-SCID mice, without NK cells
  HepG2 tumour size in mice: significantly reduced HepG2 tumour size
[8]
  Cell densities observed by light microscopy: reduced the cell densities
[9]; anisomycin and NK cells
  Cleaved PARP: substantially increased
[9]; then NK cells 2 h
  Cleaved caspase-3 protein after exposure to NK cells: synergistically increased
[9]; with or without NK cell treatment
  Level of the cleaved form of caspase-3: significantly increased
CD58
  Expression of CD58 (western blot): increased the expression of CD58 in all three HCC cell lines
[10]
  MHC-I molecules (HLA-A, -B, -C) at the protein level: significantly downregulated
